From US7384656B2, “Anti-allergy composition and related method” (Access Business Group International LLC, priority 2004, dated 2008)

Tests used:
[1] = tested on: IgE receptor (FcεRIα) on RBL-2H3 cells; experiment: IgE receptor expression on RBL-2H3 cells (anti-FcεRIα cell ELISA normalized to MTT viability); format: cell-based
Experimental: The methodology used to obtain the results of FIG. 1 will now be described. First, RBL-2H3 cells, available from ATCC (American Type Culture Collection) of Manassas, Va., were plated in 96 well plates at 3×10^4/well. Following adherence to the wells, the cells were exposed to the sample combinations of ingredients listed in Table I, each combination referred to as a “sample.” Stock solutions of all samples were prepared in a solution of DMSO, ethanol, and water present in a ratio of 5:3:2 at 100 mg/ml. […] Duplicate plates of each sample were prepared so that viability could be determined multiple times for each sample, with the results of the multiple samples averaged following treatment of the cells. The plates were incubated an additional 48 hours. To measure IgE-receptor expression, the cells were fixed for 2 hours with 1% gluteraldehyde. Following fixation, the cells were washed twice with PBS-Tween 20 (0.01%), available from Aldrich of Milwaukee, Wis. Protein binding sites were blocked for 2 hours with 2% non-fat dry milk in PBS (Phosphate Buffer Saline buffered at pH 7.3). The cells were washed twice. The primary antibody, Rabbit anti-FcεRIα, available from Upstate Group, Inc., Lake Placid, N.Y., was added to the wells and diluted 1:4000 with 0.2% BSA (Bovine Serum Albumin). Following a 2 hour incubation, the wells were washed 5× with PBS-Tween 20 (0.01%) solutions. The secondary antibody, Goat anti-rabbit IgG-peroxidase, available from Sigma-Aldrich of St. Louis, Mo., was added to the wells at 1:20000 with 0.2% BSA. Following a 1 hour incubation the wells were washed five times. 100 μliters (microliters) of TMB (3,3′,5,5±Tetramethyl benzidine dihydrochloride) Substrate, available from Chemicon International of Temecula, Calif., was added to the wells. Subsequent color development was stopped by the addition of a sufficient amount, H2SO4 (for example, 100 μliters at 1 Normal). For each of the multiple samples of the combination, the OD450 (Optical Density measured at a wavelength of 450 nanometers) was read on a plate reader. Continuing with a description of the methodology to obtain the data in FIG. 1, the viability of the cells was next determined by incubating the cells in the second plate with MTT in a concentration of 1 mg/ml for 3 hours. The reduced MTT was extracted with 70% isopropanol and the OD540 (Optical Density at a wavelength of 540 nanometers) was read for each of the multiple samples.

[2] = tested on: IgE secretion by U266 human myeloma cells; experiment: IgE secretion by U266 human myeloma cells (IgE ELISA of supernatants); format: cell-based; settings: varying concentrations
Experimental: The methodology used to obtain the results of FIG. 3 will now be described. First, U266 human myeloma cells, available from ATCC of Manassas, Va. were plated in 96 well plates at 4×10^4/well. The cells were exposed to the sample combinations of ingredients listed in Table I, each combination referred to as a “sample.” Stock solutions of all samples were prepared in a solution of DMSO, ethanol, and water present in a ratio of 5:3:2 at 100 mg/ml. Each sample was then diluted to 100 μg/ml in media. Duplicate plates of each sample were prepared so that viability could be determined multiple times for each sample, with the results of the multiple samples averaged following treatment of the cells. The plates were incubated an additional 48 hours. Thereafter, the amount of IgE in the supernatants was measured using a conventional quantitative IgE ELISA kit available from Bethyl Laboratories of Montgomery, Tex. Next, the measured OD450 data from the IgE ELISA was inputted into a calibration graph, illustrated in FIG. 4, to determine the concentration of IgE in ng/ml in each supernatant. This calibration graph was generated by measuring the OD450 of multiple, known concentrations (in nanograms per ml) of purified IgE. As shown in the graph, the X-axis indicates the concentrations of the IgE in ng/ml; and the Y-axis indicates the OD450 derived from each of the concentrations. The line 100 connects the data points, while line 110 is a trend line corresponding to the equation in this particular embodiment of: Y=0.2909X−0.2527 Equation 1 With the IgE calibration graph, the amount of IgE for each sample was determined, and the subsequent data was input into FIG. 3 for comparative analysis.

[3] = tested on: LTC4 release, RBL-2H3 cells; experiment: LTC4 release from IgE-sensitized, DNP-BSA stimulated RBL-2H3 cells (ELISA); format: cell-based; settings: 0.1 μg/ml
Experimental: (§1) The methodology used to obtain the results of FIG. 9 will now be described. First, RBL-2H3 cells, available from ATCC (American Type Culture Collection) of Manassas, Va., were plated in 24 well plates at 5×10^4/well. Following adherence, the cells were exposed to the ingredients or combination of ingredients noted in FIG. 9, also referred to as samples. The samples were used at the concentrations noted in Table VI. Stock solutions of all samples were prepared in a solution of DMSO, ethanol, and water present in a ratio of 5:3:2 at 100 mg/ml. Each sample was then diluted in media to the final concentration. The cells were then incubated overnight with the samples. The following day a mouse anti-dinitrophenyl (DNP) IgE antibody, available from Sigma of St. Louis, Mo., was added to the cells at a final concentration of 1 ng/ml. The cells were incubated for 1.5 hr at 37° C. to allow binding of the IgE molecule to the cellular IgE receptor via the constant region of the antibody. Following this incubation period, the cells were washed twice. A solution containing DNP conjugated to BSA (DNP-BSA), available from Calbiochem of San Diego, Calif., was added to the cells at 0.5 ng/ml. […] Next, the measured OD450 data from the ELISA was inputted into a calibration graph to determine the amount by which histamine was reduced relative to an untreated control sample. […]

[4] = tested on: histamine release, RBL-2H3 cells; experiment: Histamine release from IgE-sensitized, DNP-BSA stimulated RBL-2H3 cells (ELISA); format: cell-based; settings: 10 ng/ml
Experimental: The methodology used to obtain the results of FIG. 9 will now be described. First, RBL-2H3 cells, available from ATCC (American Type Culture Collection) of Manassas, Va., were plated in 24 well plates at 5×10^4/well. Following adherence, the cells were exposed to the ingredients or combination of ingredients noted in FIG. 9, also referred to as samples. The samples were used at the concentrations noted in Table VI. Stock solutions of all samples were prepared in a solution of DMSO, ethanol, and water present in a ratio of 5:3:2 at 100 mg/ml. Each sample was then diluted in media to the final concentration. The cells were then incubated overnight with the samples. The following day a mouse anti-dinitrophenyl (DNP) IgE antibody, available from Sigma of St. Louis, Mo., was added to the cells at a final concentration of 1 ng/ml. The cells were incubated for 1.5 hr at 37° C. to allow binding of the IgE molecule to the cellular IgE receptor via the constant region of the antibody. Following this incubation period, the cells were washed twice. A solution containing DNP conjugated to BSA (DNP-BSA), available from Calbiochem of San Diego, Calif., was added to the cells at 0.5 ng/ml. The cells were incubated an additional 1 hr at 37° C. The supernatants were assayed for the presence of histamine, PGD2 and/or LTC4 using ELISA kits commercially available from Cayman Chemical of Ann Arbor, Mich. according to the manufacturer's specifications. Next, the measured OD450 data from the ELISA was inputted into a calibration graph to determine the amount by which histamine was reduced relative to an untreated control sample. An example of a histamine calibration graph is illustrated in FIG. 10. Suffice it to say that calibration graphs for PGD2 and LTC4 are similar. The calibration graph in FIG. 10 was generated by measuring the OD450 of multiple, known concentrations of purified histamine. As shown in the graph, the X-axis indicates the concentrations of the histamine in nanomolar; and the Y-axis indicates the OD450 derived from each of the concentrations. The line 120 connects the data points, while line 130 is a trend line corresponding to the equation in this particular embodiment of: Y=−0.0025X^2+0.2915X+2.0775 Equation 2 With the histamine calibration graph, the amount of histamine for each sample was determined, and the subsequent data was input into Table VI and FIG. 9 for comparative analysis.

[5] = tested on: PGD2 release, RBL-2H3 cells; experiment: PGD2 release from IgE-sensitized, DNP-BSA stimulated RBL-2H3 cells (ELISA); format: cell-based; settings: 1 μg/ml
Experimental: as §1

[6] = tested on: allergic response to allergen extracts (cat dander, pollen and grass); experiment: Clinical study with Nasal Allergen Challenge (NAC): symptom scores and sneeze counts; format: in vivo, human
Experimental: To test the efficacy of an embodiment of the composition in inhibiting an allergic response, a comparative clinical study was conducted on human subjects. This clinical study consisted of testing twenty subjects for positive allergic reaction to allergen extracts (cat dander, pollen and grass). The subjects were then randomized to receive: a control, specifically a placebo; loratadine, a known anti-histamine drug, sold under the trademark CLARITIN, and a composition of the above embodiments including Picao preto, Acerola, and Cinnamon (referred to herein as the Blend). Each of these were administered to the subjects in three doses a day for two days before receiving a Nasal Allergen Challenge (NAC), which is a commonly used test for predicting real-life efficacy of allergen treatments. Specifically, Claritin was administered in an amount of 10 mg per dose; the placebo in an amount of 450 mg per dose; and the Blend in an amount of 450 mg per dose, that dose for the Blend including 150 mg Picao preto; 150 mg Acerola and 150 mg Cinnamon. Other suitable Cinnamon levels are in the range of about 25 mg to about 650 mg; suitable Picao preto levels are in the range of 25 to about 650 mg; and suitable Acerola levels are in the range of about 25 mg to about 650 mg.
(§2) During the NAC, subjects had […] increasing doses of allergen (0 (water was administered), 50, 250, 1250, and 6250 Bioequivalent Allergy Units/ml (BAU/ml)) squirted up their noses over a period of two hours. Bioequivalent Allergy Units were calculated using ID50EAL testing (Intradermal Dilution for 50 mm Sum of Erythema Determines Bioequivalent Allergy Units) (Turkeltaub PC, Biological standardization of allergenic extracts. Allergol Immunopathol (Madr). 1989, 17:53-65.
To analyze the allergy treatment effects of the Blend, Claritin and the placebo, a composite measurement of blockage, secretion and sneezing was determined. The smallest clinically meaningful difference in allergy treatment effects has been determined to be about a 0.5 score step on an 0 to 9 scale of the composite measurement of blockage, secretion and sneezing. Akerlund, A. et al, Clinical Trial Design, Nasal Allergen Challenge Models and Considerations of relevance to Pediatrics, Nasal Polyposis and Different Classes of Medication. J. Allergy. Clin. Imm., 115 (3.2): S460-482 (March 2005). Measurements used in connection determining blockage, secretion and sneezing were the Nasal Symptoms Score, the Pruritus-Rhinorrhea-Conjunctivitis Score, and sneeze counting, respectively.
The allergic symptoms of the twenty subjects were measured ten minutes after each exposure to the with an eleven-point Nasal Symptom Scale, (on a scale of 1-11, 11 being the most symptoms observed), which is common to the NAC, to establish the Nasal Symptom Score. The subjects also underwent the nasal lavage to collect supernatants which were assayed for allergic reaction and inflammatory mediators: prostaglandin D2; Leukotriene […]; and tryptase.
After the NAC, subjects were released, but continued rating their symptoms every two hours for eight hours using the Nasal Symptom Scale, as well as a 15-point Pruritus-Rhinorrhea-Conjunctivitis Scale, which is a common scale that is intended to be more sensitive than the Nasal Symptom Scale. On this scale, Pruritus, Rhinorrhea, and Conjunctivitis were each rated as none, mild, mild to moderate, moderate, moderate to severe, or severe, scored 0, 1, 2, 3, 4, or 5 points respectively, with a maximum total of 15 points for all three together. In addition, during the eight hour period, the subjects counted and recorded the number of their sneezes within each two-hour period to establish a sneeze count. […]

[7] = tested on: Prostaglandin D2; experiment: Allergic mediators in nasal fluid (nasal lavage) before and after NAC; format: in vivo, human; settings: before versus after administration of allergens
Experimental: To test the efficacy of an embodiment of the composition in inhibiting an allergic response, a comparative clinical study was conducted on human subjects. This clinical study consisted of testing twenty subjects for positive allergic reaction to allergen extracts (cat dander, pollen and grass). The subjects were then randomized to receive: a control, specifically a placebo; loratadine, a known anti-histamine drug, sold under the trademark CLARITIN, and a composition of the above embodiments including Picao preto, Acerola, and Cinnamon (referred to herein as the Blend). […]
as §2
The allergic symptoms of the twenty subjects were measured ten minutes after each exposure to the with an eleven-point Nasal Symptom Scale, (on a scale of 1-11, 11 being the most symptoms observed), which is common to the NAC, to establish the Nasal Symptom Score. […]

[8] = immediate phase (two hours during the NAC)

Structure (SMILES): O=C1O[C@H]([C@@H](O)CO)C(O)=C1O [Vitamin C]
- decrease in IgE receptor expression (FIG. 5) ([1]; 200 micrograms per milliliter): 15%
- effect on IgE receptor expression, in words (FIG. 5) ([1]; varying concentrations): significant effect
- inhibition of IgE secretion, in words (FIG. 6) [2]: inhibited IgE secretion

Structure (SMILES): O=C(/C=C/c1ccc(O)c(O)c1)O[C@H](Cc1ccc(O)c(O)c1)C(=O)O [Rosmarinic acid]
- Percent Control LTC4 Release (Table VI) [3]: 120%
- Percent Control of Histamine Release (Table VI) [4]: 9.3%
- Percent Control of PGD2 Release (Table VI) [5]: 94%

Structure (SMILES): CCOC(=O)N1CCC(=C2c3ccc(Cl)cc3CCc3cccnc32)CC1 [Claritin, loratadine]
- Nasal Symptom Scores versus placebo ([6]; delayed phase, at six hours and overall, Blend 450 mg per dose, Claritin 10 mg): significantly fewer
- Nasal Symptom Score versus placebo (FIG. 15) ([6]; delayed phase, at two hours): trends toward significantly fewer symptoms
- PRC score versus the Blend [6, 8]: lower PRC score
- sneezes versus the Blend [6, 8]: fewer sneezes
- Nasal Symptom Score versus the Blend ([6]; immediate phase (two hours during the NAC), Claritin 10 mg per dose): lower Nasal Symptom Score
- Nasal Symptom Score Areas Over the Curve versus placebo (FIG. 18) ([6]; total product effect over eight hours): significantly better than the placebo
- change of Prostaglandin D2 in nasal fluid after the NAC (FIG. 19) [7]: significant rise
